Reference: PubChem BioAssay AID1259411 (Chemical Carcinogenesis Research Information System (CCRIS), 2018)
Active and inactive are the calls of the source. How the calls were made is not given here.

System: rodent carcinogenicity bioassays, tumor incidence
Assay: CCRIS carcinogenicity studies
Outline: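 NCI-built, expert-reviewed records of carcinogenicity and related test outcomes (mutagenicity, tumor promotion/inhibition) compiled from published and report sources, historical span 1985-2011, not updated.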

O=[N+]([O-])c1ccc2c3c(cccc13)CC2
carcinogen call (Species: MOUSE, Strain/Sex: B6C3F1/FEMALE, Route: ORAL, Dose: 0, 0.05, 0.12% TWA, IN DIET FOR 78 WK (STUDY DURATION: 96 WK), Dose: 0, 0.05, 0.12% TWA, IN DIET FOR 78 WK (STUDY DURATION: 96 WK), Tumor Site: Type of Lesion: LIVER: HEPATOCELLULAR CARCINOMA, OVARIES: GRANULOSA CELL TUMOR, LUTEOMA OR TUBULAR CELL ADENOMA): active; positive | carcinogen call (Species: MOUSE, Strain/Sex: B6C3F1/MALE, Route: ORAL, Dose: 0, 0.06, 0.12% TWA, IN DIET FOR 78 WK (STUDY DURATION: 96 WK), Dose: 0, 0.06, 0.12% TWA, IN DIET FOR 78 WK (STUDY DURATION: 96 WK)): inactive; negative | carcinogen call (Species: RAT, Strain/Sex: F344/FEMALE, Route: ORAL, Dose: 0, 0.12, 0.24% IN DIET FOR 78 WK (STUDY DURATION: 87-100 WK), Dose: 0, 0.12, 0.24% IN DIET FOR 78 WK (STUDY DURATION: 87-100 WK), Tumor Site: Type of Lesion: LUNG: ALVEOLAR/BRONCHIOLAR ADENOMA OR ALVEOLAR/BRONCHIOLAR CARCINOMA, MAMMARY GLAND: ADENOCARCINOMA OR PAPILLARY CYSTADE): active; positive | carcinogen call (Species: RAT, Strain/Sex: F344/MALE, Route: ORAL, Dose: 0, 0.12, 0.24% IN DIET FOR 70-78 WK (STUDY DURATION: 70-100 WK), Dose: 0, 0.12, 0.24% IN DIET FOR 70-78 WK (STUDY DURATION: 70-100 WK), Tumor Site: Type of Lesion: LUNG: ALVEOLAR/BRONCHIOLAR ADENOMA OR ALVEOLAR/BRONCHIOLAR CARCINOMA, EAR (EAR CANAL OR SKIN OF EAR): SQUAMOUS CELL CARC): active; positive

CN(C)CCC(c1ccc(Cl)cc1)c1ccccn1 (centres undefined)
carcinogen call (Species: MOUSE, Strain/Sex: B6C3F1/FEMALE, Route: GAVAGE, Dose: 0, 100, 200 MG/KG IN DEIONIZED WATER 5 D/WK FOR 103 WK, Dose: 0, 100, 200 MG/KG IN DEIONIZED WATER 5 D/WK FOR 103 WK): inactive; negative | carcinogen call (Species: MOUSE, Strain/Sex: B6C3F1/MALE, Route: GAVAGE, Dose: 0, 25, 50 MG/KG IN DEIONIZED WATER 5 D/WK FOR 103 WK, Dose: 0, 25, 50 MG/KG IN DEIONIZED WATER 5 D/WK FOR 103 WK): inactive; negative | carcinogen call (Species: RAT, Strain/Sex: F344/FEMALE, Route: GAVAGE, Dose: 0, 30, 60 MG/KG IN DEIONIZED WATER 5 D/WK FOR 103 WK, Dose: 0, 30, 60 MG/KG IN DEIONIZED WATER 5 D/WK FOR 103 WK): inactive; negative | carcinogen call (Species: RAT, Strain/Sex: F344/FEMALE, Route: ORAL, Dose: 0, 1000 PPM IN DIET FOR 106 WK (STUDY DURATION: 130 WK)): inactive; negative | carcinogen call (Species: RAT, Strain/Sex: F344/MALE, Route: GAVAGE, Dose: 0, 15, 30 MG/KG IN DEIONIZED WATER 5 D/WK FOR 103 WK, Dose: 0, 15, 30 MG/KG IN DEIONIZED WATER 5 D/WK FOR 103 WK): inactive; negative | carcinogen call (Species: RAT, Strain/Sex: F344/MALE, Route: ORAL, Dose: 0, 1000 PPM IN DIET FOR 106 WK (STUDY DURATION: 130 WK)): inactive; negative

C1COCCN1
carcinogen call (Species: RAT, Strain/Sex: SPRAGUE-DAWLEY/FEMALE, Route: INHALATION, Dose: 0, 10, 50, 150 PPM 6 HR/D 5 D/WK FOR 104 WK (STUDY DURATION: 105 WK), Dose: 0, 10, 50, 150 PPM 6 HR/D 5 D/WK FOR 104 WK (STUDY DURATION: 105 WK)): inactive; negative | carcinogen call (Species: RAT, Strain/Sex: SPRAGUE-DAWLEY/MALE, Route: INHALATION, Dose: 0, 10, 50, 150 PPM 6 HR/D 5 D/WK FOR 104 WK (STUDY DURATION: 105 WK), Dose: 0, 10, 50, 150 PPM 6 HR/D 5 D/WK FOR 104 WK (STUDY DURATION: 105 WK)): inactive; negative

CC1COCCN1N=O (centres undefined)
carcinogen call (Species: RAT, Strain/Sex: F344/FEMALE, Route: ORAL, Dose: 45 MG/L IN DRINKING WATER FOR 26 WK, Tumor Site: Type of Lesion: LIVER: HEPATOCELLULAR CARCINOMA, HEMANGIOENDOTHELIAL SARCOMA, ESOPHAGUS: PAPILLOMA, CARCINOMA): active; positive

OC(Cn1cncn1)(Cn1cncn1)c1ccc(F)cc1F
carcinogen call (Species: RAT, Strain/Sex: SPRAGUE-DAWLEY/FEMALE, Route: ORAL, Dose: 0, 2.5, 5, 10 MG/KG IN DIET FOR 24 MO (STUDY DURATION: 24 MO), Dose: 0, 2.5, 5, 10 MG/KG IN DIET FOR 24 MO (STUDY DURATION: 24 MO)): inactive; negative | carcinogen call (Species: RAT, Strain/Sex: SPRAGUE-DAWLEY/MALE, Route: ORAL, Dose: 0, 2.5, 5, 10 MG/KG IN DIET FOR 24 MO (STUDY DURATION: 24 MO), Dose: 0, 2.5, 5, 10 MG/KG IN DIET FOR 24 MO (STUDY DURATION: 24 MO), Tumor Site: Type of Lesion: LIVER: HEPATOCELLULAR ADENOMA): active; positive

COc1c2occc2cc2ccc(=O)oc12
carcinogen call (Species: RAT, Strain/Sex: F344/F, Route: GAVAGE, Dose: 0, 37.5, 75 MG/KG IN CORN OIL 5D/WK FOR 103 WK (STUDY DURATION: 106 WK), Dose: 0, 37.5, 75 MG/KG IN CORN OIL 5D/WK FOR 103 WK (STUDY DURATION: 106 WK)): inactive; negative | carcinogen call (Species: RAT, Strain/Sex: F344/M, Route: GAVAGE, Dose: 0, 37.5, 75 MG/KG IN CORN OIL 5D/WK FOR 103 WK (STUDY DURATION: 106 WK), Dose: 0, 37.5, 75 MG/KG IN CORN OIL 5D/WK FOR 103 WK (STUDY DURATION: 106 WK), Tumor Site: Type of Lesion: SUBCUTANEOUS TISSUE: FIBROMA, SUBCUTANEOUS TISSUE: FIBROMA OR SARCOMA, LUNG: ALVEOLAR/BRONCHIOLAR ADENOMA, KIDNEY: TUBUL, Tumor Site: Type of Lesion: SUBCUTANEOUS TISSUE: FIBROMA, SUBCUTANEOUS TISSUE: FIBROMA OR SARCOMA, LUNG: ALVEOLAR/BRONCHIOLAR ADENOMA, KIDNEY: TUBUL): active; positive

CNC(=S)N(C)C
carcinogen call (Species: MOUSE, Strain/Sex: B6C3F1/FEMALE, Route: ORAL, Dose: 0, 500, 1000 PPM IN DIET, Dose: 0, 500, 1000 PPM IN DIET): inactive; negative | carcinogen call (Species: MOUSE, Strain/Sex: B6C3F1/MALE, Route: ORAL, Dose: 0, 500, 1000 PPM IN DIET, Dose: 0, 500, 1000 PPM IN DIET): inactive; negative | carcinogen call (Species: RAT, Strain/Sex: F344/FEMALE, Route: ORAL, Dose: 0, 250, 500 PPM IN DIET, Dose: 0, 250, 500 PPM IN DIET, Tumor Site: Type of Lesion: THYROID GLAND: FOLLICULAR CELL CARCINOMA OR ADENOMA): active; positive | carcinogen call (Species: RAT, Strain/Sex: F344/MALE, Route: ORAL, Dose: 0, 250, 500 PPM IN DIET, Dose: 0, 250, 500 PPM IN DIET): inactive; negative

O=S(=O)(O)OCc1c2ccccc2c2ccc3cccc4ccc1c2c43
carcinogen call (Species: MOUSE, Strain/Sex: B6C3F1/MALE, Route: INTRAPERITONEAL, Dose: 0, 0.0025 UMOL/G ONCE AT 12 DAYS OF AGE (STUDY DURATION: 10 MO), Tumor Site: Type of Lesion: LIVER: HEPATOMA): active; positive | carcinogen call (Species: RAT, Strain/Sex: SPRAGUE-DAWLEY/FEMALE, Route: SUBCUTANEOUS, Dose: 0, 0.2 UMOL 3/WK FOR 20 DOSES (STUDY DURATION: 52 WK), Tumor Site: Type of Lesion: INJECTION SITE: SARCOMA): active; positive

CCOc1ccc(NC(C)=O)cc1N
carcinogen call (Species: MOUSE, Strain/Sex: B6C3F1/FEMALE, Route: ORAL, Dose: 0, 0.4, 0.8% OF DIET, Dose: 0, 0.4, 0.8% OF DIET): inactive; negative | carcinogen call (Species: MOUSE, Strain/Sex: B6C3F1/MALE, Route: ORAL, Dose: 0, 0.4, 0.8% OF DIET, Dose: 0, 0.4, 0.8% OF DIET, Tumor Site: Type of Lesion: THYROID GLAND: FOLLICULAR CELL ADENOMA, CARCINOMA, ADENOCARCINOMA, ADENOMA, LUNG: ALVEOLAR/BRONCHIOLAR ADENOMA, CARCINOM): active; positive | carcinogen call (Species: RAT, Strain/Sex: F344/FEMALE, Route: ORAL, Dose: 0, 0.4, 1.5% OF DIET, Dose: 0, 0.4, 1.5% OF DIET): inactive; negative | carcinogen call (Species: RAT, Strain/Sex: F344/MALE, Route: ORAL, Dose: 0, 0.4, 1.5% OF DIET, Dose: 0, 0.4, 1.5% OF DIET): inactive; negative

COC(=O)C1=C(C)NC(C)=C(C(=O)OCC(C)(C)CN(C)Cc2ccccc2)C1c1cc([N+](=O)[O-])ccc1F (centres undefined)
carcinogen call (Species: RAT, Strain/Sex: F344/FEMALE, Route: ORAL, Dose: 0, 0.67, 2, 6 MG/KG/D IN DIET FOR 104 WK (STUDY DURATION: 104 WK), Dose: 0, 0.67, 2, 6 MG/KG/D IN DIET FOR 104 WK (STUDY DURATION: 104 WK)): inactive; negative | carcinogen call (Species: RAT, Strain/Sex: F344/MALE, Route: ORAL, Dose: 0, 0.67, 2, 6 MG/KG/D IN DIET FOR 104 WK (STUDY DURATION: 104 WK), Dose: 0, 0.67, 2, 6 MG/KG/D IN DIET FOR 104 WK (STUDY DURATION: 104 WK)): inactive; negative
